Here are results for 26 molecules from patent US8394789B2, “(Dihydro)pyrrolo[2,1-α]isoquinolines” (MSD Oss B.V., priority 2008, dated 2013).

SMILES strings stand for the structures.

The test has as its target T1, human FSH receptor (Homo sapiens, UniProt P23945).
T1 construct: expressed in transfected cells
T1 sequence (P23945 18-695): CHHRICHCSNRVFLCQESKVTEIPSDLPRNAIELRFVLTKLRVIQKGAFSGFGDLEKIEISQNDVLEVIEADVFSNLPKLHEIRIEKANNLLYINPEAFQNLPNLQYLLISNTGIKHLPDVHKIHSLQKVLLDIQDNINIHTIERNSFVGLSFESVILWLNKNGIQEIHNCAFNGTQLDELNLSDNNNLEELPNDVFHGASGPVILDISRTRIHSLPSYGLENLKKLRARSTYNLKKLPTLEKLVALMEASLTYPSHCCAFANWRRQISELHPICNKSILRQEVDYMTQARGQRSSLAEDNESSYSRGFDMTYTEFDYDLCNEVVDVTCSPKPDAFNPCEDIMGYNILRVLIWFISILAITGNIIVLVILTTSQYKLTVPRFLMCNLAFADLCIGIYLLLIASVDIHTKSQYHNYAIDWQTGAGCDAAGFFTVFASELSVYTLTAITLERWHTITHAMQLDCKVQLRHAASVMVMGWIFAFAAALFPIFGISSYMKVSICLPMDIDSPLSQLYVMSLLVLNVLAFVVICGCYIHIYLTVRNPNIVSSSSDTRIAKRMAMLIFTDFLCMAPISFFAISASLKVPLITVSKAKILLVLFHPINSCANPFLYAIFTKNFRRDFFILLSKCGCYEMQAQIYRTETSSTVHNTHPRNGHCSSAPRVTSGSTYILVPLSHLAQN
Description: hFSHRago (CHO luc): agonistic activity at the human FSH receptor expressed in CHO cells, CRE-luciferase reporter. Particulars: CHO cells stably transfected with human FSH receptor and CRE/luciferase reporter; 4 hours of incubation. It is filed as cell-based. A general note: Reporter assays use an easily measured gene product as a stand-in for the process of interest.
Description: The term EC50 means the concentration of the test compound that elicits half-maximal (50%) stimulation compared to the compound's maximally attainable effect. The values can be determined e.g. in a cell line transfected with a FSH receptor gene and cotransfected with a cAMP responsive element/promoter directing the expression of a reporter gene. Values can be determined using the software program such as MathIQ (version 2.0, ID Business Solutions Limited).
Agonistic activity of the compounds at the human FSH receptor was determined in Chinese Hamster Ovary (CHO) cells stably transfected with the human FSH receptor and cotransfected with a cAMP responsive element (CRE)/promoter directing the expression of a firefly luciferase reporter gene. […] Cells (7,500 cells/well of a 384 well plate) were incubated in Dulbecco' minimal essential F12 modified medium (Invitrogen), supplemented with 1 μg/ml bovine insulin, 5 μg/ml human apo-transferrin, 80 U/ml penicillin G and 80 μg/ml streptomycin with the test compounds (concentration between 0.0316 nM and 10.0 μM) in duplicate in a humidified atmosphere (95%) at 5-7% CO2 and 37° C. The final concentration of DMSO was 1%. After 4 hours of incubation, plates were allowed to adjust to room temperature for 1 hour. Then, Luclite (PerkinElmer) solution was added to the wells and cells were allowed to lyse for at least 1 hour at room temperature. Subsequently, luciferase activity was measured in a luminescence counter. The signal is expressed as counts per second (cps). The EC50 (concentration of the test compound that elicits half-maximal (50%) luciferase stimulation compared to the compound's maximally attainable effect) and efficacy values (maximal effect of the test compound as percentage of the maximal effect of recombinant human FSH) of the compounds were determined using the software program MathIQ (version 2.0, ID Business Solutions Limited).
One may read the EC50 as the concentration that produces a half-maximal response. A high value points to weaker potency. As to `COc1cc2c(cc1CC(C)C)-c1c(-c3cccs3)cc(C(=O)N(C)C(C)(C)C)n1CC2` [Example 58c, 9-Isobutyl-8-methoxy-1-thiophen-2-yl-5,6-dihydro-pyrrolo[2,1-α]isoquinoline-3-carboxylic acid tert-butyl-methyl-amide], the concentration giving a half-maximal response (EC50) stood at 4.3 nM.
As to `COc1cc2c(cc1OCCCO)-c1c(-c3cccs3)cc(C(=O)N(C)C(C)(C)C)n1CC2` [Example 70d, 9-(3-Hydroxy-propoxy)-8-methoxy-1-thiophen-2-yl-5,6-dihydro-pyrrolo[2,1-α]iso-quinoline-3-carboxylic acid tert-butyl-methyl-amide], the midpoint of the response, the EC50, lay at 1.3 nM.
The molecule `CON=Cc1c(-c2cccs2)c2n(c1C(=O)N(C)C(C)(C)C)CCc1cc(OC)c(OC(C)C)cc1-2` [Example 43, 9-Isopropoxy-8-methoxy-2-(methoxyimino-methyl)-1-thiophen-2-yl-5,6-dihydro-pyrrolo[2,1-α]isoquinoline-3-carboxylic acid tert-butyl-methyl-amide] gave an EC50 of 4.3 nM.
`COc1cc2c(cc1OC)-c1c(-c3cccs3)cc(C(=O)N3CCC[C@@H](N(C)C(C)=O)C3)n1CC2` [Example 107, N-[(R)-1-(8,9-Dimethoxy-1-thiophen-2-yl-5,6-dihydro-pyrrolo[2,1-α]isoquinoline-3-carbonyl)-piperidin-3-yl]-N-methyl-acetamide] gave an EC50 of 30.9 nM.
Consider `COc1cc2c(cc1CC(C)C)-c1c(-c3nccs3)cc(C(=O)N(C)C(C)(C)C)n1CC2` [Example 60, 9-Isobutyl-8-methoxy-1-thiazol-2-yl-5,6-dihydro-pyrrolo[2,1-α]isoquinoline-3-carboxylic acid tert-butyl-methyl-amide], for which the half-maximal effective concentration (EC50) stood at 19 nM.
The molecule `CC(C)Cc1cc2c(cc1O)CCn1c(C(=O)N(C)C(C)(C)C)cc(-c3cccs3)c1-2` [Example 61, 8-Hydroxy-9-isobutyl-1-thiophen-2-yl-5,6-dihydro-pyrrolo[2,1-α]isoquinoline-3-carboxylic acid tert-butyl-methyl-amide] yielded an EC50 of 5.2 nM.
Take `CN(C(=O)c1cc(-c2cccs2)c2n1CCc1ccc(N3CCOC3=O)cc1-2)C(C)(C)C` [Example 89, 9-(2-Oxo-oxazolidin-3-yl)-1-thiophen-2-yl-5,6-dihydro-pyrrolo[2,1-α]isoquinoline-3-carboxylic acid tert-butyl-methyl-amide]: the midpoint of the response, the EC50, lay at 245 nM.
`COc1cc2c(cc1OCCOC1CCCCO1)-c1c(-c3cccs3)cc(C(=O)N(C)C(C)(C)C)n1CC2` (stereo not drawn) [Example 65c, 8-Methoxy-9-[2-(tetrahydro-pyran-2-yloxy)-ethoxy]-1-thiophen-2-yl-5,6-dihydro-pyrrolo[2,1-α]isoquinoline-3-carboxylic acid tert-butyl-methyl-amide] had a concentration giving a half-maximal response (EC50) of 102 nM.
Molecule `COc1cc2c(cc1-c1cn[nH]c1)-c1c(-c3cccs3)cc(C(=O)N(C)C(C)(C)C)n1CC2` [Example 55, 8-Methoxy-9-(1H-pyrazol-4-yl)-1-thiophen-2-yl-5,6-dihydro-pyrrolo[2,1-α]isoquinoline-3-carboxylic acid tert-butyl-methyl-amide] showed an EC50 of 1.1 nM.
Turning to `CCOC(=O)c1cc2c(cc1OC)CCn1c(C(=O)N3CCCN(C(=O)C4CCC4)CC3)cc(-c3cccs3)c1-2` [Example 84, 3-(4-Cyclobutanecarbonyl-[1,4]diazepane-1-carbonyl)-8-methoxy-1-thiophen-2-yl-5,6-dihydro-pyrrolo[2,1--α]isoquinoline-9-carboxylic acid ethyl ester], the 50% effective concentration (EC50) stood at 2.9 nM.
The same measure for `COc1cc2c(cc1OC(C)C)-c1c(-c3cccs3)cc(C(=O)N3CCCN(C(=O)C4(OC)CCC4)CC3)n1CC2` [Example 11, (9-Isopropoxy-8-methoxy-1-thiophen-2-yl-5,6-dihydro-pyrrolo[2,1-α]isoquinolin-3-yl)-[4-(1-methoxy-cyclobutanecarbonyl)-[1,4]diazepan-1-yl]-methanone]: 5.4 nM.
Turning to `CNC(=O)COc1cc2c(cc1OC)CCn1c(C(=O)N(C)C(C)(C)C)cc(-c3cccs3)c1-2` [Example 64, 8-Methoxy-9-methylcarbamoylmethoxy-1-thiophen-2-yl-5,6-dihydro-pyrrolo[2,1-α]isoquinoline-3-carboxylic acid tert-butyl-methyl-amide], the EC50 came to 3.1 nM.
The molecule `CCCCN1CCN(C(=O)c2cc(-c3cccs3)c3n2CCc2cc(OC)c(OCC(C)(C)O)cc2-3)CCC1=O` [Example 14d, 4-Butyl-1-[9-(2-hydroxy-2-methyl-propoxy)-8-methoxy-1-thiophen-2-yl-5,6-dihydro-pyrrolo[2,1-α]isoquinoline-3-carbonyl]-[1,4]diazepan-5-one] came in with a concentration for a half-maximal effect (EC50) of 1.5 nM.
In the case of `COc1cc2c(cc1C#N)-c1c(-c3cccs3)cc(C(=O)N(C)C(C)(C)C)n1CC2` [Example 83, 9-Cyano-8-methoxy-1-thiophen-2-yl-5,6-dihydro-pyrrolo[2,1--α]isoquinoline-3-carboxylic acid tert-butyl-methyl-amide], a half-maximal response (EC50) required 4.3 nM.
For `COc1cc2c(cc1OC(C)C)-c1c(-c3cccs3)cc(C(=O)N3CCCN(C(=O)C4(O)CCC4)CC3)n1CC2` [Example 10, [4-(1-Hydroxy-cyclobutanecarbonyl)-[1,4]diazepan-1-yl]-(9-isopropoxy-8-methoxy-1-thiophen-2-yl-5,6-dihydro-pyrrolo[2,1-α]isoquinolin-3-yl)-methanone], the EC50 worked out at 1.4 nM.
Take `COc1cc2c(cc1OC(C)C)-c1c(-c3cccs3)cc(C(=O)N3CCCN(C(=O)C4CCCO4)CC3)n1CC2` (stereo not drawn) [Example 1, (9-Isopropoxy-8-methoxy-1-thiophen-2-yl-5,6-dihydro-pyrrolo[2,1-α]isoquinolin-3-yl)-[4-(tetrahydro-furan-2-carbonyl)-[1,4]diazepan-1-yl]-methanone]: the concentration for a half-maximal effect (EC50) was determined as 0.9 nM.
In turn, `COc1cc2c(cc1OC(C)C)-c1c(-c3cccs3)cc(C(=O)N(C)N3CCCC3)n1CC2` [Example 32, 9-Isopropoxy-8-methoxy-1-thiophen-2-yl-5,6-dihydro-pyrrolo[2,1-α]isoquinoline-3-carboxylic acid methyl-pyrrolidin-1-yl-amide] yielded an EC50 of 55.2 nM.
`CCOc1cc2c(cc1OC)CCn1c(C(=O)N(CC)C(C)C)c(C(C)=O)c(-c3cccs3)c1-2` [Example 112, 2-Acetyl-9-ethoxy-8-methoxy-1-thiophen-2-yl-5,6-dihydro-pyrrolo[2,1-α]isoquinoline-3-carboxylic acid ethyl-isopropyl-amide] came in with a 50% effective concentration (EC50) of 200 nM.
`CNCC(=O)N1CCCN(C(=O)c2cc(-c3cccs3)c3n2CCc2cc(OC)c(OC(C)C)cc2-3)CC1` [Example 6, 1-[4-(9-Isopropoxy-8-methoxy-1-thiophen-2-yl-5,6-dihydro-pyrrolo[2,1-α]isoquinoline-3-carbonyl)-[1,4]diazepan-1-yl]-2-methylamino-ethanone] yielded a concentration giving a half-maximal response (EC50) of 264 nM.
To `COc1cc2c(cc1OC(C)C)-c1c(C3CCCC3)cc(C(=O)NC(C)(C)C)n1CC2` [Example 50, 1-Cyclopentyl-9-isopropoxy-8-methoxy-5,6-dihydro-pyrrolo[2,1-α]isoquinoline-3-tert-butylamide] belongs 220 nM; to `COc1cc2c(cc1OC)-c1c(-c3ccc(F)cc3F)cc(C(=O)N(C)C(C)(C)C)n1CC2` [Example 118, 1-(2,4-Difluoro-phenyl)-8,9-dimethoxy-5,6-dihydro-pyrrolo[2,1-α]isoquinoline-3-carboxylic acid tert-butyl-methyl-amide], 48.3 nM.
Consider `COc1cc2c(cc1OC(C)C)-c1c(-c3cccs3)cc(C(=O)NC3C[C@@H]4CN(C(C)=O)C[C@@H]4C3)n1CC2` (stereo partly drawn) [Example 23, 9-Isopropoxy-8-methoxy-1-thiophen-2-yl-5,6-dihydro-pyrrolo[2,1-α]isoquinoline-3-carboxylic acid (2-acetyl-octahydro-cyclopenta[c]pyrrol-5(endo)-yl)-amide], for which the EC50 turned out to be 787 nM.
Molecule `COc1cc2c(cc1OC(C)C)-c1c(C#N)cc(C(=O)N(C)C(C)(C)C)n1CC2` [Example 37d, 1-Cyano-9-isopropoxy-8-methoxy-5,6-dihydro-pyrrolo[2,1-α]isoquinoline-3-carboxylic acid tert-butyl-methyl-amide] showed a concentration for a half-maximal effect (EC50) of 67.1 nM.
The same measure for `COc1cc2c(cc1NC(=O)C(C)C)-c1c(-c3cccs3)cc(C(=O)N3CCCC3(C)C)n1CC2` [Example 62, N-[3-(2,2-Dimethyl-pyrrolidine-1-carbonyl)-8-methoxy-1-thiophen-2-yl-5,6-dihydro-pyrrolo[2,1-α]isoquinolin-9-yl]-isobutyramide]: 3.7 nM; for `COc1cc2c(cc1OC(C)C)-c1c(-c3cccs3)cc(C(=O)N[C@@H]3CCCN(C(C)=O)C3)n1CC2` [Example 34c, 9-Isopropoxy-8-methoxy-1-thiophen-2-yl-5,6-dihydro-pyrrolo[2,1-α]isoquinoline-3-carboxylic acid ((R)-1-acetyl-piperidin-3-yl)-amide]: 251 nM.
The molecule `CCN(C(=O)c1cc(-c2ccsc2)c2n1CCc1cc(OC)c(OC)c(F)c1-2)C(C)C` [Example 116, 10-Fluoro-8,9-dimethoxy-1-thiophen-3-yl-5,6-dihydro-pyrrolo[2,1-α]isoquinoline-3-carboxylic acid ethyl-isopropyl-amide] came in with an EC50 of 318 nM.
